Converted amounts (≈) assume the structure as drawn. Like-named read-outs stand apart in the source and are kept apart here.
Legend:
Format in all cases: cell-based
S. pneumoniae 113 = experiment: MIC determination, broth microdilution (CLSI); conditions: Streptococcus pneumoniae, 113, strain 13; broth microdilution; read-out: MIC strain 13 (S. pneumoniae 113)
A. baumannii ATCC15308 = experiment: MIC determination, broth microdilution (CLSI); conditions: Acinetobacter baumannii, ATCC15308, strain 9
H. influenzae ATCC 49247 = experiment: MIC determination, broth microdilution (CLSI); conditions: Haemophilus influenzae, ATCC49247, strain 12; broth microdilution; read-out: MIC strain 12 (H. influenzae ATCC 49247)
C. perfringens DSM756 = experiment: microbe, parasite or virus in culture; conditions: Clostridium perfringens, DSM756, read-out: MIC strain 16 (C. perfringens DSM756), strain 16; broth microdilution
K. pneumoniae 60 = experiment: MIC determination, broth microdilution (CLSI); conditions: Klebsiella pneumoniae, 60, strain 2
C. freundii K21/3034 = experiment: MIC determination, broth microdilution (CLSI); conditions: Citrobacter freundii, K21/3034, strain 4
[1] = test system: P. aeruginosa 2297 (AmpC wt); experiment: MIC determination, broth microdilution (CLSI); conditions: Pseudomonas aeruginosa, strain 7
E. coli J62 = experiment: MIC determination, broth microdilution (CLSI); conditions: Escherichia coli, J62, strain 17; broth microdilution; read-out: MIC strain 17 (E. coli J62)
S. maltophilia ICB7569 = experiment: MIC determination, broth microdilution (CLSI); conditions: Stenotrophomonas maltophilia, ICB7569, strain 10
S. aureus 133 = experiment: MIC determination, broth microdilution (CLSI)
E. coli ATCC25922 = experiment: MIC determination, broth microdilution (CLSI); conditions: Escherichia coli, ATCC25922, strain 1
E. cloacae 34654 = experiment: MIC determination, broth microdilution (CLSI); conditions: Enterobacter cloacae, 34654, strain 3
Bacteria = experiment: MIC determination in combination with β-lactamase inhibitors (constant 4 μg/mL)
B. fragilis 6688 = experiment: MIC determination, broth microdilution (CLSI); conditions: Bacteroides fragilis, 6688, strain 15; broth microdilution; read-out: MIC strain 15 (B. fragilis 6688)
[2] = test system: P. aeruginosa 2297-con (AmpC derepressed); experiment: MIC determination, broth microdilution (CLSI); conditions: Pseudomonas aeruginosa, read-out: strain 8 MIC, strain 8
M. morganii 126/3048 = experiment: MIC determination, broth microdilution (CLSI); conditions: Morganella morganii, 126/3048, strain 5
P. aeruginosa PAO1 = experiment: MIC determination, broth microdilution (CLSI); conditions: Pseudomonas aeruginosa, PAO1, strain 6
E. coli J62-TEM-3 = experiment: MIC determination, broth microdilution (CLSI); conditions: Escherichia coli, J62TEM3, read-out: MIC strain 18 (E. coli J62-TEM-3), strain 18; broth microdilution
[3] = Staphylococcus aureus, 133, strain 11, read-out: strain 11 MIC

| SMILES | MIC (S. pneumoniae 113) | MIC (A. baumannii ATCC15308) | MIC (H. influenzae ATCC 49247) | MIC (C. perfringens DSM756) | MIC (K. pneumoniae 60) | MIC (C. freundii K21/3034) | MIC [1] | MIC (E. coli J62) | MIC (S. maltophilia ICB7569) | MIC (S. aureus 133; [3]) | MIC (E. coli ATCC25922) | MIC (E. cloacae 34654) | MIC strain 19 (E. coli J62-TEM-3 + 4 μg/mL clavulanic acid) (Bacteria) | MIC strain 20 (E. coli J62-TEM-3 + 4 μg/mL sulbactam) (Bacteria) | MIC strain 21 (E. coli J62-TEM-3 + 4 μg/mL tazobactam) (Bacteria) | MIC (B. fragilis 6688) | MIC [2] | MIC (M. morganii 126/3048) | MIC (P. aeruginosa PAO1) | MIC (E. coli J62-TEM-3) | other results |
| --- | --- | --- | --- | --- | --- | --- | --- | --- | --- | --- | --- | --- | --- | --- | --- | --- | --- | --- | --- | --- | --- |
| CN1CC[C@H](NC(=N)c2ccc(OC[C@H](O/N=C(\C(=O)N[C@@H]3C(=O)N(OS(=O)(=O)O)C3(C)C)c3csc(N)n3)C(=O)O)cc2)C1 [Example 101] | 0.5 µg/mL (≈ 0.748 µM) | 4 µg/mL (≈ 5.98 µM) | ≤ 0.063 µg/mL | 2 µg/mL (≈ 2.99 µM) | 0.125 µg/mL (≈ 0.187 µM) | 0.125 µg/mL (≈ 0.187 µM) | 4 µg/mL (≈ 5.98 µM) | 0.125 µg/mL (≈ 0.187 µM) | 8 µg/mL (≈ 12 µM) | ≤ 0.063 µg/mL | 0.125 µg/mL (≈ 0.187 µM) | 0.125 µg/mL (≈ 0.187 µM) | ≦0.063 mg/L | ≦0.063 mg/L | 0.125 µg/mL | 8 µg/mL (≈ 12 µM) | 2 µg/mL (≈ 2.99 µM) | 0.125 µg/mL (≈ 0.187 µM) | 2 µg/mL (≈ 2.99 µM) | 8 µg/mL (≈ 12 µM) |  |
| CC1(C)[C@H](NC(=O)/C(=N\O[C@@H](COc2ccc(C(=N)NC(CN)CN)cc2)C(=O)O)c2csc(N)n2)C(=O)N1OS(=O)(=O)O [Example 102, (2S)-2-({[(1Z)-1-(2-Amino-1,3-thiazol-4-yl)-2-{[(3S)-2,2-dimethyl-4-oxo-1-(sulfooxy)azetidin-3-yl]amino}-2-oxoethylidene]amino}oxy)-3-{4-[N-(1,3-diaminopropan-2-yl)carbamimidoyl]phenoxy}propanoic acid] | 0.5 µg/mL (≈ 0.76 µM) | 4 µg/mL (≈ 6.08 µM) | ≤ 0.063 µg/mL | 2 µg/mL (≈ 3.04 µM) | ≤ 0.063 µg/mL | ≤ 0.063 µg/mL | 2 µg/mL (≈ 3.04 µM) | 0.125 µg/mL (≈ 0.19 µM) | 4 µg/mL (≈ 6.08 µM) | ≤ 0.063 µg/mL | 0.125 µg/mL (≈ 0.19 µM) | 0.25 µg/mL (≈ 0.38 µM) | ≦0.063 mg/L | ≦0.063 mg/L | 0.125 µg/mL | 8 µg/mL (≈ 12.2 µM) | 2 µg/mL (≈ 3.04 µM) | ≤ 0.063 µg/mL | 1 µg/mL (≈ 1.52 µM) | 4 µg/mL (≈ 6.08 µM) |  |
| CC1(C)[C@H](NC(=O)/C(=N\O[C@@H](COc2ccc(C(=N)NC3CNCC3N)cc2)C(=O)O)c2csc(N)n2)C(=O)N1OS(=O)(=O)O (stereo partly drawn) [Example 106, (2S)-3-{4-[N-(4-Aminopyrrolidin-3-yl)carbamimidoyl]phenoxy}-2-({[(1Z)-1-(2-amino-1,3-thiazol-4-yl)-2-{[(3S)-2,2-dimethyl-4-oxo-1-(sulfooxy)azetidin-3-yl]amino}-2-oxoethylidene]amino}oxy)propanoic acid] | 0.5 µg/mL (≈ 0.747 µM) | 2 µg/mL (≈ 2.99 µM) | ≤ 0.063 µg/mL | 1 µg/mL (≈ 1.49 µM) | 0.125 µg/mL (≈ 0.187 µM) | 0.125 µg/mL (≈ 0.187 µM) | 2 µg/mL (≈ 2.99 µM) | 0.125 µg/mL (≈ 0.187 µM) | 4 µg/mL (≈ 5.97 µM) | ≤ 0.063 µg/mL | 0.125 µg/mL (≈ 0.187 µM) | 0.125 µg/mL (≈ 0.187 µM) | 0.125 µg/mL | ≦0.063 mg/L | 0.125 µg/mL | 8 µg/mL (≈ 11.9 µM) | 1 µg/mL (≈ 1.49 µM) | ≤ 0.063 µg/mL | 1 µg/mL (≈ 1.49 µM) | 8 µg/mL (≈ 11.9 µM) |  |
| CC1(C)[C@H](NC(=O)/C(=N\O[C@@H](COc2ccc(C(=N)NC3CNC3)cc2)C(=O)O)c2csc(N)n2)C(=O)N1OS(=O)(=O)O [Example 107, (2S)-2-({[(1Z)-1-(2-Amino-1,3-thiazol-4-yl)-2-{[(3S)-2,2-dimethyl-4-oxo-1-(sulfooxy)azetidin-3-yl]amino}-2-oxoethylidene]amino}oxy)-3-{4-[N-(azetidin-3-yl)carbamimidoyl]phenoxy}propanoic acid] | 0.5 µg/mL (≈ 0.78 µM) | 1 µg/mL (≈ 1.56 µM) | ≤ 0.063 µg/mL | 0.125 µg/mL (≈ 0.195 µM) | 0.125 µg/mL (≈ 0.195 µM) | ≤ 0.063 µg/mL | 1 µg/mL (≈ 1.56 µM) | 0.125 µg/mL (≈ 0.195 µM) | 4 µg/mL (≈ 6.24 µM) | ≤ 0.063 µg/mL | ≤ 0.063 µg/mL | 0.25 µg/mL (≈ 0.39 µM) | ≦0.063 mg/L | ≦0.063 mg/L | ≦0.063 mg/L | 8 µg/mL (≈ 12.5 µM) | 1 µg/mL (≈ 1.56 µM) | ≤ 0.063 µg/mL | 1 µg/mL (≈ 1.56 µM) | 4 µg/mL (≈ 6.24 µM) | MIC (S. aureus 133; Staphylococcus aureus, 133, strain 14, broth microdilution, read-out: MIC strain 14 (S. aureus 133)): 32 µg/mL (≈ 49.9 µM) |

— patent US9556165B2 (priority 2012, dated 2017)
